From EP4467141A1, “PYRAZOLO-QUINOLINES AS SELECTIVE INHIBITORS OF GENOTOXIC STRESS-INDUCED IKK/NF- KB PATHWAYS FOR CANCER THERAPY” (Max-Delbrück-Centrum für Molekulare Medizin in der …, priority 2023, dated 2024)

What was measured:
Experiment in all cases: Kinase panel study
Format in all cases: biochemical
Details in all cases: read-out: Percentage of inhibition; for inhibition at 1 µM: 1000nM; for inhibition at 10 µM: 10000nM
[1] = target: T1, HCK (Homo sapiens, UniProt P08631)
T1 construct: purchased Thermo Fisher Scientific
Method in brief: (§1)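 ZLyte/Adapta biochemical kinase assays, standard operating procedures; % inhibition at 1 µM or 10 µM test compound; IC50 determined in panel.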

[2] = target: T2, CSK (Homo sapiens, UniProt P41240)
T2 construct: purchased Thermo Fisher Scientific
Method in brief: as §1

[3] = target: T3, LCK (Homo sapiens, UniProt P06239)
T3 construct: purchased Thermo Fisher Scientific
Method in brief: as §1

[4] = target: T4, SGKL (SGK3) (Homo sapiens, UniProt Q96BR1)
T4 construct: purchased Thermo Fisher Scientific
T4 sequence (Q96BR1 1-496): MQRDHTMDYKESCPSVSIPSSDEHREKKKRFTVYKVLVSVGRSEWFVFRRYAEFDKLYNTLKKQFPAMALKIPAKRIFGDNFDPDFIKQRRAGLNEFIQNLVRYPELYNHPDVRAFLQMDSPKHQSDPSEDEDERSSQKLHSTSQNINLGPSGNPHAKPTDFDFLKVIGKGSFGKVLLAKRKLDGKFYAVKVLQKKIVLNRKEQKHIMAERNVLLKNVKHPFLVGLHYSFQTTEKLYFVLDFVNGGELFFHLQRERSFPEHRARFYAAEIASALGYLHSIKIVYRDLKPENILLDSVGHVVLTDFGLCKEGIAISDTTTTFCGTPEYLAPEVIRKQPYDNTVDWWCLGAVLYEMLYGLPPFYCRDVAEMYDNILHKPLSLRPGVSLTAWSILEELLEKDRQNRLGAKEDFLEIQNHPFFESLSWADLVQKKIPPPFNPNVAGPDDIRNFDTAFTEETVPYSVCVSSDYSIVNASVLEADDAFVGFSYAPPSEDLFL
Method in brief: as §1

[5] = target: T5, AMPK (A1/B2/G3) (Homo sapiens, UniProt Q13131)
T5 construct: purchased Thermo Fisher Scientific
Method in brief: as §1

[6] = target: T6, BMX (Homo sapiens, UniProt P51813)
T6 construct: purchased Thermo Fisher Scientific
T6 sequence (P51813 1-675): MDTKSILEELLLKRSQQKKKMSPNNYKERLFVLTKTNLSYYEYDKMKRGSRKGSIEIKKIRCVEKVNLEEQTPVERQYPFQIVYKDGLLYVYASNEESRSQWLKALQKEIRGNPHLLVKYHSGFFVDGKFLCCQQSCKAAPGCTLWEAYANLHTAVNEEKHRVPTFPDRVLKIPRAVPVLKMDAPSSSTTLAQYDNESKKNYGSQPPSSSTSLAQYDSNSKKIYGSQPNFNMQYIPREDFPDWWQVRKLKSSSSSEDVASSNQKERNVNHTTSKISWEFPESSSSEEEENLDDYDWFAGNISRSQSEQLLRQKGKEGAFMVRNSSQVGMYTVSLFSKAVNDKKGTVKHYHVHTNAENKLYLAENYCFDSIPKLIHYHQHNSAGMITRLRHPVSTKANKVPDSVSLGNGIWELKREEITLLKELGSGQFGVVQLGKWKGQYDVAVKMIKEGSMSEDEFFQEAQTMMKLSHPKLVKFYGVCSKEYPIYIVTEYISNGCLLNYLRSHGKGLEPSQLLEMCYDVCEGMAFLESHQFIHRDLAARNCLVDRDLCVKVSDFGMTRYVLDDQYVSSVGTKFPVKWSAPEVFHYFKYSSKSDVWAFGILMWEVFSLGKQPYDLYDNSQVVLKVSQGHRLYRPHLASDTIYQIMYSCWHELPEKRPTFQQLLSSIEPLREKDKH
Method in brief: as §1

T2 sequence (P41240 whole entry): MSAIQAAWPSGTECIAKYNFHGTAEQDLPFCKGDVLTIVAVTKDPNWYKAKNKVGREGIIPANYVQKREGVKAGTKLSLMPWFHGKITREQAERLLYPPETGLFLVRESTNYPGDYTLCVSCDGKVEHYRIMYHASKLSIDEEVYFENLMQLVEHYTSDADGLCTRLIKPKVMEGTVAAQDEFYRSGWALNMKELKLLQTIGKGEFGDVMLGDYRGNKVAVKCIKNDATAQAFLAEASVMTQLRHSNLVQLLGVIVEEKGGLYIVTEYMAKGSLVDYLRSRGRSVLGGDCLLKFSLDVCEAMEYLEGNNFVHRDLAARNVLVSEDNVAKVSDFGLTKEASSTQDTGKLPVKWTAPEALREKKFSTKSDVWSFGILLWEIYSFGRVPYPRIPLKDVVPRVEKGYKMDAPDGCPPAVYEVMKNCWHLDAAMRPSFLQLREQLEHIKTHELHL
T5 sequence (Q13131 whole entry): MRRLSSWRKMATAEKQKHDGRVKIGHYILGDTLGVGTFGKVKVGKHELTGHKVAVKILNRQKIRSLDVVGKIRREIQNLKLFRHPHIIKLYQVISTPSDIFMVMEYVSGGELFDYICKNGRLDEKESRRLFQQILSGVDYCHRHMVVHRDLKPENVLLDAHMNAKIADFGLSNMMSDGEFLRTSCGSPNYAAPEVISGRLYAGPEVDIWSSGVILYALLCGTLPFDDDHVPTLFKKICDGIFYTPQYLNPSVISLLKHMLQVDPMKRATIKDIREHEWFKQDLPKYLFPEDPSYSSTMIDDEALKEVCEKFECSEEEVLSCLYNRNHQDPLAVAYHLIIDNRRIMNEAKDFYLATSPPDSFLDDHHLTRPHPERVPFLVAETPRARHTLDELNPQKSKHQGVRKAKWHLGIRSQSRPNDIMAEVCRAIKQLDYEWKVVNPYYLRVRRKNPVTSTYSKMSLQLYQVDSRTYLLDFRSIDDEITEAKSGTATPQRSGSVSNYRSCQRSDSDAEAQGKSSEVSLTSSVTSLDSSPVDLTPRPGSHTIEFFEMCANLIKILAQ
T5 sequence (O43741 whole entry partner): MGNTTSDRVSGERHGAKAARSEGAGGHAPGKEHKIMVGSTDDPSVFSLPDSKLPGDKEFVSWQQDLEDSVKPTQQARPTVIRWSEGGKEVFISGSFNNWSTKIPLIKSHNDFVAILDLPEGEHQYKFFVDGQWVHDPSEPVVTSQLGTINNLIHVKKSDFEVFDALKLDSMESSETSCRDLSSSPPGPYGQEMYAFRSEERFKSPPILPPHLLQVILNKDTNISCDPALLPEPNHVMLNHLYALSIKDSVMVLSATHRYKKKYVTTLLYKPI
T5 sequence (Q9UGI9 whole entry partner): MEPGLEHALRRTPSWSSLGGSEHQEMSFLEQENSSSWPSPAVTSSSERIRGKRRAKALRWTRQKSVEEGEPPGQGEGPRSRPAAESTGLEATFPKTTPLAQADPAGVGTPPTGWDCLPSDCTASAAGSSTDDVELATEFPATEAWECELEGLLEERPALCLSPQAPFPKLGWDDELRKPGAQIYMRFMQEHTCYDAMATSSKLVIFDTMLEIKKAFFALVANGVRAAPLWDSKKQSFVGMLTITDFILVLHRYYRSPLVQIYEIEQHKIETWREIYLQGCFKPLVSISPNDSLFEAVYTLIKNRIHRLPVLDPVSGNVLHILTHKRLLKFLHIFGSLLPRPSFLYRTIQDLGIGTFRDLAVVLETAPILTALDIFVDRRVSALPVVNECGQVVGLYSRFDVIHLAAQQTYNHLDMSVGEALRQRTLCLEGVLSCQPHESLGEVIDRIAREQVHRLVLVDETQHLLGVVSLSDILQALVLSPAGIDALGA
T1 sequence (P08631 whole entry): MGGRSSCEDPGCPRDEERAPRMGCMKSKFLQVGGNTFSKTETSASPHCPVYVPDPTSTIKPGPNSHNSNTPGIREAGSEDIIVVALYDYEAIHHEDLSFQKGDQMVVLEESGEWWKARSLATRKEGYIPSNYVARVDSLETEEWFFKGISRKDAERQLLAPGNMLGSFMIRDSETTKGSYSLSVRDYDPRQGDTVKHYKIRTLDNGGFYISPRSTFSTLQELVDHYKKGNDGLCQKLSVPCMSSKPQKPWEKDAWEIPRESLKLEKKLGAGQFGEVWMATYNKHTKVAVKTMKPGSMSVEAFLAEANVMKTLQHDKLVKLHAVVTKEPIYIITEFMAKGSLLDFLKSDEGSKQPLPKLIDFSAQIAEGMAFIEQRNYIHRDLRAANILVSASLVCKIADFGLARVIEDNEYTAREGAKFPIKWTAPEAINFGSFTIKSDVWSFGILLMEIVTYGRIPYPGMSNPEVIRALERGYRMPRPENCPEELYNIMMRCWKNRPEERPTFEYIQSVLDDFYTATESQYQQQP
T3 sequence (P06239 whole entry): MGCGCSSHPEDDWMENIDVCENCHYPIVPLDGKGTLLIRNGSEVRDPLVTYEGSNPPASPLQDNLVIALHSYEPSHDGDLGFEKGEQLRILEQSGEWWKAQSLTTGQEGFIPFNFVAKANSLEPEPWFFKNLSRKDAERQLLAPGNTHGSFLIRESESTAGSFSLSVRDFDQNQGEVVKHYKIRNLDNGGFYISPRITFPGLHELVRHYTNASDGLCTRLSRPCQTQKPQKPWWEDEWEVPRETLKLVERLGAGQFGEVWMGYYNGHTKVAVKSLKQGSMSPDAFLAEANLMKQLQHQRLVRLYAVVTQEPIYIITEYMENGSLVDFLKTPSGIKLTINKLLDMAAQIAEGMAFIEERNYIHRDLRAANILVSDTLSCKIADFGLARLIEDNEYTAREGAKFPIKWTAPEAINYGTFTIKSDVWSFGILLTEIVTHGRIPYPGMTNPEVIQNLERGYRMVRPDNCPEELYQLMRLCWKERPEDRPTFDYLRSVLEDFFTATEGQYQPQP

| SMILES | inhibition at 1 µM [1] | inhibition at 10 µM [1] | inhibition at 1 µM [2] | inhibition at 10 µM [2] | inhibition at 1 µM [3] | inhibition at 10 µM [3] | inhibition at 1 µM [4] | inhibition at 10 µM [4] | inhibition at 1 µM [5] | inhibition at 10 µM [5] | inhibition at 1 µM [6] | inhibition at 10 µM [6] |
| --- | --- | --- | --- | --- | --- | --- | --- | --- | --- | --- | --- | --- |
| COc1ccc2c(c1OC)c(=O)n1c3ccc(O)cc3c3ccnc2c31 [MW01, 5-Hydroxy-10,11-dimethoxy-9H-benzo[c]indolo[3,2,1-ij][1,5]naphthyridin-9-one] | 13% | 22% | 11% | 18% | 12% | 37% | 12% | 10% | 3% | 19% | -8% | 6% |
| COc1ccc2cc3c(N)nn(C(=O)c4cccc(N(C)C)c4)c3nc2c1 [MW05, (3-Amino-7-methoxypyrazolo[3,4-b]quinolin-1-yl)-[3-(dimethylamino)phenyl]methanone] | 10% | 9% | 9% | 13% | 8% | 5% | 8% | 6% | 0% | -6% | -10% | 4% |
